# Data published in patent US5416070A, “Composition for macrophage activation” (ImmunoTherapeutics, Inc., priority 1990, dated 1995).
# Tested on: Meth A sarcoma
# Assay: Antitumor activity in saline in the Meth A sarcoma
# Format: in vivo, mice
# Experimental: BALB/C female mice, age 7 weeks, were injected subcutaneously with 1×10^6 Meth A tumor cells. Eight days later the animals were treated intravenously with either saline (control) or Compound IIA at a dose of 1, 10, or 100 micrograms (μg). Each group consisted of 4 animals. Tumor measurements were taken every 2 days for 10 days and the mice followed for 60 days until cured or death due to tumor occurred.
smiles,measurement,setting,value
"CCCCCCCCCCCCCCCC(=O)OCC(COC(=O)C(C)NC(=O)CCC(NC(=O)C(C)NC(=O)C(C)OC1C(NC(C)=O)C(O)OC(CO)C1OC1OC(CO)C(O)C(O)C1NC(C)=O)C(N)=O)OC(=O)CCCCCCCCCCCCCCC [Compound IIA, 4-O-[2-acetamido-2-deoxy-β-D-glucopyranosyl]-2-acetamido-2-deoxy-3-O-[D-2-propanoyl-L-alanyl-D-isoglutaminyl-L-alanyl-1,2-dipalmitoyl-sn-glycerol]-D-glucopyranose]",animals exhibiting complete regression of tumor,100 μg i.v.,one of four
same,decrease in tumor growth,"day 6 after therapy, single i.v. dose of 100 μg",50%
